Experimental data taken from patent publication US20190389958A1, “ANTI-CXCR4 ANTIBODIES” (MSM Protein Technologies, Inc., priority 2017, published 2019).

Experiments:
RA1 cells [1] = assay: Anti-tumor activity in a SCID/RA1 xenograft model of Burkitt's lymphoma (Example 11); assay type: in vivo, SCID mice; conditions: for Mean Survival / Median Survival / Mice alive at the end of the study = day 81 / % Increased life span: 10 mg/kg, IV, Q4D × 6; for % Increased life span: ILS % = [(T-C)/C]×100 of median survival; for survival of mice (in words): SCID mice with RA1 cells
Description: The therapeutic effect of test antibodies was evaluated in an animal model of Burkitt's lymphoma. In the model used, systemic cancer in SCID mice causes hind limb paralysis and infiltrates all major organs.
Forty-eight hours before tumor cell injection, female SCID mice (7-9 weeks old, weighing 17-22 g) were irradiated with a γ-source (1.8 Gy, ^60Co). […] The tumor bearing mice were distributed on D4 into 10 groups of 10 mice each based on body weight using Vivo Manager® software (Biosystemes, Dijon, France). […] Treatment started on D4: mice were administered intravenously a 5 mg/kg or a 10 mg/kg dose of test antibody on days 4, 8, 12, 16, 20 and 24. The vehicle for injection was 10 mM Na-Citrate, 150 mM NaCl, 50 mM Arginine (pH 5.5). Body weights were measured and recorded twice weekly. Mean survival time was calculated for each group as the mean of the day of death, and median survival time was calculated for each group as the median of the day of death. The efficacy of each test antibody was judged by the increased life span value (ILS). ILS % was expressed as follows: ILS %=[(T-C)/C]×100. T was the median of the survival times of animals treated with each test antibody, and C was the median survival time of control animals treated with vehicle.

Human U937 cells = assay: Inhibition of SDF-1alpha-induced chemotaxis/cell migration (Example 9); assay type: cell-based; conditions: U-937, SDF-1alpha 3 nM, AMD3100 1 μM
Description: Human U937 cells were grown in RPMI-1640 medium with 10% FCS, then washed twice and incubated in serum-free RPMI-1640 at 37° C. for 3 hours (5% CO2). Starved […] cells were re-suspended in medium for chemotaxis (RPMI-1640 with 0.3% BSA) at 3*10^5 cells per ml and • a) incubated for 30 min at room temperature (not-pre-treated positive control for assay); • b) pre-treated with AMD 3100 at 1 μM concentration (positive control for chemotaxis inhibition) for 30 min at room temperature; or • c) pre-treated with a test IgG at 100 nM concentration for 30 min at room temperature.
Respective not-pre-treated or pre-treated U937 cells were then placed into the top wells of a microchemotaxis chamber (15,000 cells per well).
A polycarbonate filter with a […] pore diameter separated top and bottom chambers.
After incubation for one hour at 37° C. (5% CO2), the cell suspensions were removed from the top wells, and the wells were washed once with PBS. […] The number of migrated cells in each well was determined using a Guava PCA-96 cytometer. […]
Maximal SDF-1 induced migration was calculated as the difference in the number of migrated cells between conditions (al) and (a) in the Table immediately above. The percentage of migration inhibition for a test antibody was then calculated by reference to this maximal migration.

RA1 cells [2] = assay: Antibody-dependent cell-mediated cytotoxicity (ADCC), LDH release (Example 10); assay type: cell-based, human; conditions: E:T ratio 20:1
Description: ADCC was measured with RA1 cells as the target cells (T) and using the CytoTox 96® Non-Radioactive Cytotoxicity Assay (Promega Corp., Fitchburg, Wis.)), which assay measures lactate dehydrogenase (LDH) release. A round-bottom 96-well culture plate was set up with the following control and experimental wells (100 microliter final volumes):
a. RA1 cells (for target cell spontaneous LDH release control) b. RA1 cells (for target cell maximum LDH release control) c. Culture medium (RPMI 1640 Medium (1X) without phenol red) used for volume correction control d. Culture medium (for culture medium background control) e. RA1 plus effector cells (E) (for target plus effector cell spontaneous LDH release control) f. Experimental wells with effector and target cells (10^5) with serial dilutions of each test IgG or without test IgG.
The plates were centrifuged at 1600 rpm for 2 minutes and incubated at 37° C. for 4 hours. One hour prior to supernatant harvest, 20 microliters of Lysis Solution (10×) were added to the conditions b) and c). The plates were centrifuged at 1600 rpm for 2 minutes, and 50 microliters of the supernatant from each well of the assay plates were transferred to corresponding wells of a flat-bottom 96-well enzymatic assay plate. Substrate Mix (50 microliters) was added to each well of the latter plate, and the plate (protected from light) was incubated for 30 minutes at room temperature. Finally, 50 microliters of Stop Solution were added to each well, and absorbance (OD values) was measured at 490 nm. Each condition was tested in triplicates.
Preliminary experiments had been conducted in order to determine the optimal E:T ratio. The data shown below were obtained at a 20:1 E:T ratio with 10^5 RA1 target cells. The effector cells used in this study were prepared as follows: human peripheral blood mononuclear cells (PBMCs) obtained from a healthy donor were isolated by means of density gradient centrifugation using Lymphocyte Separation Medium (ref. J15-004, Invitrogen Corp., Carlsbad, Calif.). PBMCs at 2×10^6 per mL were cultured for two days in RPMI 1640 with 10% FCS, penicillin/streptomycin and 100 units per mL of human recombinant IL-2 (obtained from Roussel-Uclaf) in a 37° C. humidified incubator (5% CO2).
ADCC percentages obtained at different concentrations of test IgGs were calculated with the formula % ADCC=(f−e)/(b−a)×100, i.e., % ADCC=(OD of Target+Effector cells +/−Test Mab −OD of Spontaneous Release of Target+Effector cells)/(OD Maximal Release Target cells −OD Spontaneous Release of Target cells)×100.

Compound	Mean Survival (RA1 cells [1]) [days]	Median Survival (RA1 cells [1]) [days]	Mice alive at the end of the study = day 81 (RA1 cells [1])	% Increased life span (RA1 cells [1]) [%]	survival of mice (in words) (RA1 cells [1])	inhibition at 1 µM (Human U937 cells) [%]	ADCC percentage (RA1 cells [2]; 0.0001 μg/mL) [%]	ADCC percentage (RA1 cells [2]; 0.001 μg/mL) [%]	ADCC percentage (RA1 cells [2]; 0.01 μg/mL) [%]	ADCC percentage (RA1 cells [2]; 0.1 μg/mL) [%]	ADCC percentage (RA1 cells [2]; 1 μg/mL) [%]
Xolair: isotypic control [reference compound]	29	27	0/10	0	died of disseminated disease with severe weight loss or were terminated because they were moribund within four weeks	–	–	–	–	–	–
c1cc(CN2CCCNCCNCCCNCC2)ccc1CN1CCCNCCNCCCNCC1 [AMD3100]	–	–	–	–	–	98	–	–	–	–	–
Rituximab: CD20 antibody Mabthera, used as positive control [reference compound]	63	62	0/10	130	lived significantly longer than control mice	–	3	8	27	46	60
